Data from patent US8030498B2, “Benzoylpyrazole compounds and herbicides containing them” (Ishihara Sangyo Kaisha, Ltd., priority 2005, dated 2011).

Legend:
[1] = test system: barnyardgrass (Echinochloa crus-galli L.); assay: Test Example 1: foliar treatment, growth inhibition rate, barnyardgrass; type: in vivo; details: visually observed 17th to 23rd day after application
Excerpt: (§1) Upland field soil was put into a 1/170,000 hectare pot, and seeds of various plants were sown. When the respective plants reached predetermined leaf stage ((1) barnyardgrass (Echinochloa crus-galli L.); 0.8 to 2.5 leaf stage, (2) crabgrass (Digitaria sanguinalis L.): 0.5 to 3.0 leaf stage, (3) greenfoxtail (Setaria viridis L.): 1.0 to 3.0 leaf stage, (4) redroot pigweed (Amaranthus retroflexus L.): cotyledon stage to 2.0 leaf stage, (5) prickly sida (Sida spinosa L.): cotyledon stage to 1.1 leaf stage, (6) velvetleaf (Abutilon theophrasti MEDIC.): cotyledon stage to 1.5 leaf stage, (7) rice (Oryza sativa L.): 1.0 to 2.5 leaf stage, (8) wheat (Triticum spp.): 1.7 to 3.4 leaf stage, (9) corn (Zea mays L.): 2.0 to 3.5 leaf stage, and (10) soybean (Glycine max Merr.): primary leaf stage to 0.3 leaf stage), wettable powders or emulsifiable concentrates of the compounds of the present invention prepared in accordance with a conventional preparation method, were weighed so that the active ingredients became the prescribed amounts, and diluted with water in an amount corresponding to 500 liter per 1 hectare. 0.1 vol % of an agricultural spreader was further added to the respective diluted liquids, followed by foliar treatment with a small sprayer.
(§2) On the 17th to 23rd day after application, the state of growth of the respective plants was visually observed, and the herbicidal effect was evaluated in accordance with a growth inhibition rate (%) of 0 (equivalent to the non-treated area) to 100% (complete kill).

[2] = test system: crabgrass (Digitaria sanguinalis L.); assay: Test Example 1: foliar treatment, growth inhibition rate, crabgrass; type: in vivo; details: visually observed 17th to 23rd day after application
Excerpt: as §1, §2

[3] = test system: greenfoxtail (Setaria viridis L.); assay: Test Example 1: foliar treatment, growth inhibition rate, greenfoxtail; type: in vivo; details: visually observed 17th to 23rd day after application
Excerpt: as §1, §2

[4] = test system: redroot pigweed (Amaranthus retroflexus L.); assay: Test Example 1: foliar treatment, growth inhibition rate, redroot pigweed; type: in vivo; details: visually observed 17th to 23rd day after application
Excerpt: as §1, §2

[5] = test system: prickly sida (Sida spinosa L.); assay: Test Example 1: foliar treatment, growth inhibition rate, prickly sida; type: in vivo; details: visually observed 17th to 23rd day after application
Excerpt: as §1, §2

[6] = test system: velvetleaf (Abutilon theophrasti MEDIC.); assay: Test Example 1: foliar treatment, growth inhibition rate, velvetleaf; type: in vivo; details: visually observed 17th to 23rd day after application
Excerpt: as §1, §2

rice (Oryza sativa L.) = assay: Test Example 1: foliar treatment, growth inhibition rate, rice; type: in vivo; details: visually observed 17th to 23rd day after application
Excerpt: as §1, §2

wheat (Triticum spp.) = assay: Test Example 1: foliar treatment, growth inhibition rate, wheat; type: in vivo; details: visually observed 17th to 23rd day after application
Excerpt: as §1, §2

corn (Zea mays L.) = assay: Test Example 1: foliar treatment, growth inhibition rate, corn; type: in vivo; details: visually observed 17th to 23rd day after application
Excerpt: as §1, §2

[7] = test system: soybean (Glycine max Merr.); assay: Test Example 1: foliar treatment, growth inhibition rate, soybean; type: in vivo; details: visually observed 17th to 23rd day after application
Excerpt: as §1, §2

crabgrass = assay: Test Example 2: soil application on the day after sowing, growth inhibition rate, crabgrass; type: in vivo, Digitaria sanguinalis L.; details: 250 g/ha active ingredient, observed on 19th to 24th day
Excerpt: (§3) Upland field soil was put into a 1/170,000 hectare pot, and seeds of various plants (barnyardgrass, crabgrass, greenfoxtail, redroot pigweed, prickly sida, velvetleaf, rice, wheat, corn and soybean) were sown. On the day after sowing, wettable powders or emulsifiable concentrates of the compounds of the present invention prepared in accordance with a conventional preparation method, were weighed so that the active ingredients became the prescribed amounts, and diluted with water in an amount corresponding to 500 liter per 1 hectare, followed by soil application with a small sprayer. On the 19th to 24th day after the application, the state of growth of the respective plants was visually observed, and the herbicidal effect was evaluated in accordance with a growth inhibition rate (%) of from 0 (equivalent to the non-treated area) to 100% (complete kill).

redroot pigweed = assay: Test Example 2: soil application on the day after sowing, growth inhibition rate, redroot pigweed; type: in vivo, Amaranthus retroflexus L.; details: 250 g/ha active ingredient, observed on 19th to 24th day
Excerpt: as §3

velvetleaf = assay: Test Example 2: soil application on the day after sowing, growth inhibition rate, velvetleaf; type: in vivo, Abutilon theophrasti MEDIC.; details: 250 g/ha active ingredient, observed on 19th to 24th day
Excerpt: as §3

corn = assay: Test Example 2: soil application on the day after sowing, growth inhibition rate, corn; type: in vivo, Zea mays L.; details: 250 g/ha active ingredient, observed on 19th to 24th day
Excerpt: as §3

Compound	Growth inhibition rate (%) Barnyardgrass ([1]; 63 g/ha active ingredient) [%]	Growth inhibition rate (%) Crabgrass ([2]; 63 g/ha active ingredient) [%]	Growth inhibition rate (%) Greenfoxtail ([3]; 63 g/ha active ingredient) [%]	Growth inhibition rate (%) redroot pigweed ([4]; 63 g/ha active ingredient) [%]	Growth inhibition rate (%) Prickly sida ([5]; 63 g/ha active ingredient) [%]	Growth inhibition rate (%) Velvetleaf ([6]; 63 g/ha active ingredient) [%]	Growth inhibition rate (%) Rice (rice (Oryza sativa L.); 63 g/ha active ingredient) [%]	Growth inhibition rate (%) Wheat (wheat (Triticum spp.); 63 g/ha active ingredient) [%]	Growth inhibition rate (%) Corn (corn (Zea mays L.); 63 g/ha active ingredient) [%]	Growth inhibition rate (%) Soybean ([7]; 63 g/ha active ingredient) [%]	Growth inhibition rate (%) Barnyardgrass ([1]; 31 g/ha active ingredient) [%]	Growth inhibition rate (%) Crabgrass ([2]; 31 g/ha active ingredient) [%]	Growth inhibition rate (%) Greenfoxtail ([3]; 31 g/ha active ingredient) [%]	Growth inhibition rate (%) redroot pigweed ([4]; 31 g/ha active ingredient) [%]	Growth inhibition rate (%) Prickly sida ([5]; 31 g/ha active ingredient) [%]	Growth inhibition rate (%) Velvetleaf ([6]; 31 g/ha active ingredient) [%]	Growth inhibition rate (%) Rice (rice (Oryza sativa L.); 31 g/ha active ingredient) [%]	Growth inhibition rate (%) Wheat (wheat (Triticum spp.); 31 g/ha active ingredient) [%]	Growth inhibition rate (%) Corn (corn (Zea mays L.); 31 g/ha active ingredient) [%]	Growth inhibition rate (%) Soybean ([7]; 31 g/ha active ingredient) [%]	also measured
CCSC(=O)Oc1c(C(=O)c2ccc(S(C)(=O)=O)c(CC3OCCO3)c2C)cnn1C [compound 238]	100	98	98	100	98	100	90	10	0	98	–	–	–	–	–	–	–	–	–	–	–
CCSC(=O)Oc1c(C(=O)c2ccc(S(C)(=O)=O)c(CS(C)(=O)=O)c2C)cnn1C [compound 72]	–	–	–	–	–	–	–	–	–	–	80	50	70	60	60	60	50	0	10	70	Growth inhibition rate (%) Crabgrass (crabgrass): 0%; Growth inhibition rate (%) redroot pigweed (redroot pigweed): 50%; Growth inhibition rate (%) Velvetleaf (velvetleaf): 30%; Growth inhibition rate (%) Corn (corn): 0%
CCSC(=O)Oc1c(C(=O)c2ccc(S(C)(=O)=O)c(Cl)c2C)cnn1CC [compound 71]	–	–	–	–	–	–	–	–	–	–	70	40	60	70	60	60	60	10	0	60	–
CCSC(=O)Oc1c(C(=O)c2ccc(S(C)(=O)=O)c(CCC#N)c2C)cnn1C [compound 230]	100	100	100	100	80	95	95	40	0	100	–	–	–	–	–	–	–	–	–	–	–
CCSC(=O)Oc1c(C(=O)c2ccc(S(C)(=O)=O)c(CCCOC)c2C)cnn1C [compound 226]	–	–	–	–	–	–	–	–	–	–	100	95	95	95	70	80	100	0	0	100	–
